The text below walks through data of patent publication US6048892A, “Ester compound pesticide containing thereof” (Sumitomo Chemical Company, Limited, priority 1999, dated 2000).

Series [1] has as its system common mosquitoes (Culex pipiens pallens). The series can be described thus: Biological Test 11: mosquitoes in cup over treated aluminum plate without direct contact, mortality. The class given is in vivo. Conditions: 24 h. As for the experimental part:
After 0.64 ml of a 0.05 (w/v) % acetone solution of the present compounds was dropped into an aluminum plate (bottom diameter: 7 cm), acetone was air-dried. Ten female common mosquitoes (Culex pipiens pallens) were left in a polyethylene cup (diameter: 9 cm; depth: 4.5 cm) and the cup was sealed with a 16-mesh nylon net to prevent direct contact of the mosquitoes with the compound. The cup was placed upside down on the aluminum plate at 25° C. for 120 minutes. The cup was then removed from the aluminum plate, and water and feed were given to the mosquitoes. After 24 hours, the mortality was examined (two replicate).

For series [2], the system named is webbing clothes moth (Tineola bisselliella). The series can be described thus: Biological Test 14: treated filter paper in cardboard box, percent moribund, fabric damage and persistence. It is filed as in vivo. Conditions: 36 mg on filter paper. How it is done:
A filter paper (3.2 cm×3.2 cm in size) treated with 36 mg of each of the present compounds and two wool muslin fabrics (25 cm×25 cm in size) were hung down at the upper part of a corrugated cardboard box (29 cm×29 cm×29 cm in size). After standing at 25° C. and a humidity of 60% for 1 week, two tea-strainer balls holding 7 to 10 middle instar larvae of webbing clothes moth (Tineola bisselliella) and one piece of wool muslin cloth (2 cm×2 cm in size) were hung down at the upper part of the box. The box was closed with a lid. After one week, the box was opened, and the percent moribund and the degree of damage of the wool muslin cloth by the moths were examined. The same tests was repeated 2 weeks, 3 weeks and 5 weeks after the treatment to examine the persistance of the present compound. The degree of damage was represented by "-" in no damage, "+" in slight damage, "++" in heavy damage and "+++" in severe damage.

The subject of series [3] is southern corn rootworm (Diabrotica undecimpunctata howardi). The series can be described thus: Biological Test 3: mortality of hatched larvae and eggs. It is filed as in vivo. Conditions: 192 h, read-out: mortality of the hatched larvae and eggs. From the text: Filter paper of 5.5 cm in diameter was laid in the bottom of a polyethylene cup (diameter: 5.5 cm). […] After 8 days, the mortality of the hatched larvae and eggs was examined.

The subject of series [4] is webbing clothes moth (Tineola bisselliella). The series can be described thus: Biological Test 13: volatile agent in cup, mortality and fabric damage. Conditions: volatile agent (100 μg on filter paper), 950 cm^3 cup, 25° C., 1 week; for mortality: 10080 min. It is filed as in vivo. As for the experimental part: A wool muslin fabric (2 cm×2 cm in size) was placed on the bottom of a polyethylene cup (bottom diameter: 10 cm, opening part diameter: 12.5 cm, height: 9.5 cm, volume: 950 cm^3). Ten middle instar larvae of webbing clothes moth (Tineola bisselliella) were put in the cup and each of the volatile agents prepared according to the formulation example 14 was hung from the cap in the interior of the cup. After standing at 25° C. for 1 week, the cup was opened, and the mortality and the degree of damage of the wool muslin fabric by the moths were examined (two replicate).

The test system of series [5] is common mosquitoes (Culex pipiens pallens). The series can be described thus: Biological Test 8: knock-down of mosquitoes by mosquito-coil. The class given is in vivo. Conditions: 1.0 g of 0.3% mosquito-coil in 0.34 m^3 chamber; after 15 minutes. How it is done:
Mosquito-coil containing the present compound in an amount of 0.3% was prepared according to the formulation example 10 for the present compounds. Ten female common mosquitoes (Culex pipiens pallens) were left in a glass chamber (70 cm×70 cm×70 cm: 0.34 m^3) and 1.0 g of 0.3% mosquito-coil having both ends lit was placed in the glass chamber. After 15 minutes, the rate of knocked-down mosquitoes was examined.

For series [6], the system named is houseflies (Musca domestica). Put plainly: Biological Test 17: topical application of compound (2) with piperonyl butoxide, mortality. The class given is in vivo. Conditions: after 24 hours. As for the experimental part:
The combination rate of piperonyl butoxide to the present compound was 0, 2, 4, 8 and 16 times. The mixture was dissolved in acetone. The acetone solution (0.5 μL) was applied to 10 female houseflies (Musca domestica) at the back thoracic region. After 24 hours, the number of dead insects was observed (2 repetition) and mortality was calculated.

Series [7] has as its system common mosquitoes (Culex pipiens pallens). Put plainly: Biological Test 7: knock-down of mosquitoes by sprayed oil solution. It is filed as in vivo. Conditions: 0.7 ml of 0.1% oil solution sprayed in 0.34 m^3 chamber; after 15 minutes. How it is done: Ten female common mosquitoes (Culex pipiens pallens) were left in a glass chamber (70 cm×70 cm×70 cm: 0.34 m^3). 0.7 ml of 0.1% oil solution prepared for each of the present compounds according to the formulation example 7 was sprayed with a spray gun at 0.8 atmospheric pressure. After 15 minutes, the rate of knocked-down mosquitoes was examined.

Series [8] deals with German cockroaches (Blattella germanica). Put plainly: Biological Test 5: mortality of male German cockroaches low sensitive to pyrethroids, treated filter paper. It is filed as in vivo. The following applies: 144 h. How it is done:
Filter paper of 5.5 cm in diameter was laid in the bottom of a polyethylene cup (diameter: 5.5 cm). After 0.7 ml of a 500 ppm aqueous emulsion obtained by diluting each emulsifiable concentrate prepared according to the formulation example 1 was dropped on the filter paper and approximately 30 mg of sucrose as bait was uniformly scattered. Two male German cockroaches (Blattella germanica), which were low sensitive to pyrethroids, were left in the cup with a cover. After six days, the mortality was examined.

Series [9] relates to houseflies (Musca domestica). Put plainly: Biological Test 4: mortality of female houseflies low sensitive to pyrethroids, treated filter paper. The following applies: 24 h. The class given is in vivo. As for the experimental part:
Filter paper of 5.5 cm in diameter was laid in the bottom of a polyethylene cup (diameter: 5.5 cm). After 0.7 ml of a 500 ppm aqueous emulsion obtained by diluting each emulsifiable concentrate prepared according to the formulation example 1 was dropped on the filter paper and approximately 30 mg of sucrose as bait was uniformly scattered. Ten female houseflies (Musca domestica), which were low sensitive to pyrethroids, were left in the cup with a cover. After one day, the mortality was examined.

In series [10] the test system is common mosquitoes (Culex pipiens pallens). The series can be described thus: Biological Test 6: mortality of last-instar mosquito larvae in water. It is filed as in vivo. The following applies: 24 h, read-out: mortality of the common mosquitoes. As for the experimental part:
0.7 ml of aqueous emulsion, obtained by diluting emulsifiable concentrate prepared for each of the present compounds according to the formulation example 1, was added to 100 ml of ion-exchanged water (concentration of active ingredient: 3.5 ppm). Twenty last-instar larvae of common mosquitoes (Culex pipiens pallens) were left in the water. After one day, the mortality of the common mosquitoes was examined.

In series [11] the test system is webbing clothes moth (Tineola bisselliella). Put plainly: Biological Test 12: topical application to larvae of webbing clothes moth, mortality and fabric damage. It is filed as in vivo. Conditions: for degree of damage of the wool muslin fabric: 3 μg/insect, after 7 days; for mortality at 0.003 mg: Tineola bisselliella, 168 h. As for the experimental part:
Each of the present compounds diluted with acetone to a predetermined concentration was applied to ten middle instar larvae of webbing clothes moth (Tineola bisselliella) at the central part of the back so as to give the active ingredient in a dose of 3 μg/insect. A wool muslin fabric (2 cm×2 cm in size) was given to the webbing clothes moths as the food. After 7 days, the mortality and the degree of damage of the wool muslin fabric by the moths were examined (two replicate).

The test system of series [12] is brown planthopper (Nilaparvata lugens). The series can be described thus: Biological Test 2: mortality of larvae on dipped rice plant stalk. Conditions: 144 h, read-out: mortality of the larvae. The class given is in vivo. How it is done:
A stalk of a rice plant was dipped for one minute in a 500 ppm aqueous emulsion obtained by diluting each emulsifiable concentrate of the present compounds prepared according to the formulation example 1. The rice plant stalk was air-dried and placed in a polyethylene cup (diameter: 5.5 cm) where filter paper (diameter: 5.5 cm) impregnated with 1 ml of water was put. Approximately 30 larvae of brown planthopper (Nilaparvata lugens) were put in the polyethylene cup. After 6 days, the mortality of the larvae was examined.

For series [13], the system named is tobacco cutworm (Spodoptera litura). The series can be described thus: Biological Test 1: mortality of larvae on impregnated artificial bait. It is filed as in vivo. Conditions: 144 h, read-out: mortality of the larvae. As for the experimental part: Emulsifiable concentrates were prepared for each of the present compounds according to the formulation example 1. Thirteen grams of artificial bait for tobacco cutworm (Spodoptera litura) were placed in a polyethylene cup (diameter: 11 cm) and impregnated with 2 ml of the 500 ppm emulsion prepared by diluting the emulsifiable concentrates with water. Ten 4-instar larvae of Spodoptera litura were put in the polyethylene cup. After 6 days, the mortality of the larvae was examined.

Series [14] can be described thus: Toxicity Test: acute oral LD50. The following applies: rat, in vivo, corn oil, fasted male 7-week old rats, after 7 days. As for the experimental part:
After subjecting the rats to a twenty-hour fasting, 0.1 ml of the diluted solution per 10 g weight was forcibly applied into the stomach of four male 7-week old rats. The rats were given food and water four hours after the application and thereafter regularly fed and watered, and kept in a cage. After 7 days, the mortality was examined for the rats and LD50 was calculated.

For the molecule `CCc1ccc(COC(=O)[C@@H]2[C@H](/C=C(\Cl)C(F)(F)F)C2(C)C)o1` (relative stereo) [(2), 5-ethyl-2-furfuryl (1RS,cis)-3-(Z-2-chloro-3,3,3-trifluoroprop-1-enyl)-2,2-dimethyl-cyclopropanecarboxylate], the mortality at 500 µg/mL in series [1] and in series [13] was 100% each time. For the same molecule, the degree of damage entry in series [2] (After 1 week), in series [2] (After 2 weeks), in series [2] (After 3 weeks) and in series [2] (After 5 weeks) was “-” each time. The mortality at 50 ppm in series [3] was 100%. Moreover, the “degree of damage of the wool muslin fabric” value in [4] and in series [11] was “no damage” each time. The same molecule returned a mortality in series [4] of 100%. In addition, the “rate of knocked-down mosquitoes” value in series [5] is listed as 100%; in series [7], at least 90%. The “Mortality (%)” value in series [6] (compound (2) 0.2 μg/female, piperonyl butoxide 0) stood at 30%; in [6] (compound (2) 0.2 + piperonyl butoxide 0.4 μg/female), 85%; in series [6] (compound (2) 0.2 + piperonyl butoxide 0.8 μg/female), 100%; in series [6] (compound (2) 0.2 + piperonyl butoxide 1.6 μg/female), 100%; in series [6] (compound (2) 0.2 + piperonyl butoxide 3.2 μg/female), 100%. Also, the mortality at 500 ppm was 100% in series [8], 100% in [9] and at least 90% in series [12]. The mortality at 3.5 ppm in series [10] was at least 90%. In series [11], this molecule yielded a mortality at 0.003 mg of 100%.
Turning to `CCCc1ccc(COC(=O)[C@@H]2[C@H](/C=C(\Cl)C(F)(F)F)C2(C)C)o1` (relative stereo) [(3), 5-propyl-2-furfuryl (1RS,cis)-3-(Z-2-chloro-3,3,3-trifluoroprop-1-enyl)-2,2-dimethylcyclopropanecarboxylate], the mortality at 500 µg/mL in [1] and in [13] was 100% each time. Moreover, the degree of damage entry in series [2] (After 1 week), in series [2] (After 2 weeks), in series [2] (After 3 weeks) and in series [2] (After 5 weeks) was “-” in each case. The mortality at 50 ppm in series [3] was found to be 100%. Further, the “degree of damage of the wool muslin fabric” value in series [4] and in series [11] was “no damage” throughout. Further, in series [4], the mortality came to 100%. For the same molecule, the “rate of knocked-down mosquitoes” value is 100% in series [5] and at least 90% in [7]. The mortality at 500 ppm in series [8] is 100%; in series [9], 100%; in series [12], at least 90%. Besides, the mortality at 3.5 ppm in series [10] was at least 90%. Besides, the mortality at 0.003 mg in series [11] is 100%.
As to `C=CCc1ccc(COC(=O)[C@@H]2[C@H](/C=C(\Cl)C(F)(F)F)C2(C)C)o1` (relative stereo) [(4), 5-allyl-2-furfuryl (1RS,cis)-3-(Z-2-chloro-3,3,3-trifluoroprop-1-enyl)-2,2-dimethylcyclopropanecarboxylate], the mortality at 500 µg/mL in series [1] and in series [13] was 100% throughout. Moreover, the degree of damage entry in series [2] (After 1 week), in [2] (After 2 weeks), in [2] (After 3 weeks) and in [2] (After 5 weeks) was “-” each time. Also, in series [3], the mortality at 50 ppm turned out to be 100%. Besides, the “degree of damage of the wool muslin fabric” value in series [4] and in series [11] was “no damage” in each case. In addition, in series [4], the mortality turned out to be 100%. The results for the “rate of knocked-down mosquitoes” value in series [5] and in [7] were 100% and at least 90%, respectively. Also, the mortality at 500 ppm in [8] was 100%; in series [9], 100%; in [12], at least 90%. For the same molecule, the mortality at 3.5 ppm in series [10] was at least 90%. Moreover, in series [11], the mortality at 0.003 mg was found to be 100%.
As to `CC1(C)C(/C=C(\Cl)C(F)(F)F)C1C(=O)OCc1coc(Cc2ccccc2)c1` (stereo not shown) [A, reference compound], the degree of damage result in series [2] (After 1 week), in series [2] (After 2 weeks), in series [2] (After 3 weeks) and in series [2] (After 5 weeks) was “+++” each time. The molecule further yielded an LD50 at 168 h in series [14] below 50 mg/kg.
Turning to `CC1(C)C(/C=C(\Cl)C(F)(F)F)C1C(=O)OCc1ccc(C(F)F)o1` (stereo not shown) [B, reference compound], the degree of damage entry in series [2] (After 1 week), in series [2] (After 2 weeks), in [2] (After 3 weeks) and in [2] (After 5 weeks) was “+++” each time.
Take `C#CCc1ccc(COC(=O)C2C(/C=C(\Cl)C(F)(F)F)C2(C)C)o1` (stereo not shown) [C, reference compound]: the degree of damage entry in series [2] (After 1 week), in [2] (After 2 weeks), in series [2] (After 3 weeks) and in series [2] (After 5 weeks) was “+++” throughout. Moreover, the LD50 at 168 h in [14] was below 100 mg/kg.

A word on the mortality: it is the share of the test organisms that died. One may read the LD50 as the dose at which mortality reaches 50%. Low values mean a more toxic substance, high ones a less toxic substance.
